Experimental data as given in ChEMBL document CHEMBL1201862, “PubChem BioAssay data set” (2004).
Active and inactive are the calls of the source.

Experiments:
[1] = off-target signal loss in HeLa-CEM21 co-culture – HeLa F-luc CTL cells, cherry-picked, counter-screen for HIV-1 Env fusion inhibitor project, dose response (AID 652040); assay type: functional, cell-based;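 note: potency for signal decrease marking cytotoxic or nonspecific inhibition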
[2] = ZM109 Env clade C HIV-1 fusion inhibitors, dose response, HeLa effector, CEM target cells, luciferase, cherry-pick (AID 652058); assay type: functional, cell-based
[3] = inhibitors of clade B AD8 Env fusion, dose response, cell-based, cherry-pick (AID 652062); assay type: functional;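 note: luciferase signal from cell-cell fusion driven by HIV-1 clade B AD8 Env; potency is for inhibitors of fusion seen as a drop in luminescence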
[4] = inhibitors of HIV Env-driven cell fusion, dose response, cherry-pick (AID 652057); assay type: functional, cell-based
[5] = molecular target: Dual specificity tyrosine-phosphorylation-regulated kinase 1A (Rattus norvegicus, UniProt Q63470); assay type: biochemical, Homo sapiens
[6] = molecular target: T1, Adenosylmethionine-8-amino-7-oxononanoate aminotransferase (Mycobacterium tuberculosis, UniProt P9WQ81); assay: Mycobacterium tuberculosis BioA enzyme inhibitor Measured in Biochemical System Using Plate Reader - 2163-02_Inhibitor_Dose_CherryPick_Activity.; assay type: functional, Mycobacterium tuberculosis UT205
T1 sequence (P9WQ81 whole entry): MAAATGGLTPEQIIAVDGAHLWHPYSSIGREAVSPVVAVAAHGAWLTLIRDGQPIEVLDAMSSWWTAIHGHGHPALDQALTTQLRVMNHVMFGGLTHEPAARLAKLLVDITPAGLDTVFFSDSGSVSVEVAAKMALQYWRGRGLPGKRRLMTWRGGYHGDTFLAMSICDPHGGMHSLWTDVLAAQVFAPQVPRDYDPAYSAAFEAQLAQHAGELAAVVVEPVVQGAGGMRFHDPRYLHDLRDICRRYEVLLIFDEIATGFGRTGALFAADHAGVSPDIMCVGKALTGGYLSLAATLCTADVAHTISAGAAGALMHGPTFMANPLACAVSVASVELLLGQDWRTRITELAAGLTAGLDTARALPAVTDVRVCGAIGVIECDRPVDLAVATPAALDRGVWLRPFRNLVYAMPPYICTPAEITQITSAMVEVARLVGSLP

[7] = molecular target: T2, Rac GTPase-activating protein 1 (Homo sapiens, UniProt Q9H0H5); assay: MgcRacGAP GTPase-activating activity inhibitors, confirmation, biochemical, ADP Hunter fluorescence, primary and confirmatory (AID 624330); assay type: functional
T2 sequence (Q9H0H5 whole entry): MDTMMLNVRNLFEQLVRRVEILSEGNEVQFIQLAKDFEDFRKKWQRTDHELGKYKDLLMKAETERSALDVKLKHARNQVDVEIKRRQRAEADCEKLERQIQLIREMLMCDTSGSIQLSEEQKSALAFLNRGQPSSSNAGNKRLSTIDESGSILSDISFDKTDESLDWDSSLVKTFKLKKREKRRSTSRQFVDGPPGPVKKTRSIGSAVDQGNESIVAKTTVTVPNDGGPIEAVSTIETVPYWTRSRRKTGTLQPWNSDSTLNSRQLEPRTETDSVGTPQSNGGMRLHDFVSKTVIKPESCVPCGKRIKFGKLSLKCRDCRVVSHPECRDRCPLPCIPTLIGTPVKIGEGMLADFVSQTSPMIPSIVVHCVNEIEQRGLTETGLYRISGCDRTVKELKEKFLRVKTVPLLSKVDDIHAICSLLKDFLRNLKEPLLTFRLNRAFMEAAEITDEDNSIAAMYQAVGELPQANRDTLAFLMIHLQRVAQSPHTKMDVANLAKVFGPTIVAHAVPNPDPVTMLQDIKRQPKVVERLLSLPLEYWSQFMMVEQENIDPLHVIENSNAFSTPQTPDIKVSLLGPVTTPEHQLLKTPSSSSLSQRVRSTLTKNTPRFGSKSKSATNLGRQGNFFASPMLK

HEK293 = assay: inhibitors of LMP1-driven NF-kB reporter, dose response, cell-based, HEK293, luciferase, cherry-pick (AID 588343); assay type: functional; settings: Homo sapiens
HeLa = assay: HeLa cell cytotoxicity, dose response, cytotoxicity control for MITF activator project, CellTiter-Glo luminescence, cherry-pick samples (AID 540259); assay type: functional, cell-based; settings: Homo sapiens
[8] = molecular target: T3, Sentrin-specific protease 8 (Homo sapiens, UniProt Q96LD8); assay type: functional;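 note: luminescence read-out of SENP8 inhibition, dose-response confirmation following an ultra-high-throughput screen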
T3 sequence (Q96LD8 whole entry): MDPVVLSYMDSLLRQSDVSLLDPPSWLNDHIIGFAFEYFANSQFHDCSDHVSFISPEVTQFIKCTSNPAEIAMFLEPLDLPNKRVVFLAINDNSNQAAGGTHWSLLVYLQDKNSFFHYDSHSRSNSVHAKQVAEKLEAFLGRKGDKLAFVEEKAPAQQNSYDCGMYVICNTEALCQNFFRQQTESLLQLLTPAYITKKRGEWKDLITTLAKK

Caspase-3 = molecular target: T4, Caspase-3 (Homo sapiens, UniProt P42574); assay type: functional;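 note: Dose-response selectivity test against caspase-3 for candidate inhibitors of sentrin-specific proteases (SENPs)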
T4 sequence (P42574 whole entry): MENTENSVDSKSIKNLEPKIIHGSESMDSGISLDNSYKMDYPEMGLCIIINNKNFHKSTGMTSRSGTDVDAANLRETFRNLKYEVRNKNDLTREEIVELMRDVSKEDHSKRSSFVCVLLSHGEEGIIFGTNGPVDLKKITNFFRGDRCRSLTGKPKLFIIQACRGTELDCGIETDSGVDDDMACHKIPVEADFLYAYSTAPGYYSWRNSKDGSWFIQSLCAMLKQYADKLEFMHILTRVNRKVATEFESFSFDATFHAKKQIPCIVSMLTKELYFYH

[9] = molecular target: T5, Sentrin-specific protease 6 (Homo sapiens, UniProt Q9GZR1); assay type: functional;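 note: Luminescence-based dose-response confirmatory assay of SENP6 inhibition, following up an ultra-high-throughput screen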
T5 sequence (Q9GZR1 whole entry): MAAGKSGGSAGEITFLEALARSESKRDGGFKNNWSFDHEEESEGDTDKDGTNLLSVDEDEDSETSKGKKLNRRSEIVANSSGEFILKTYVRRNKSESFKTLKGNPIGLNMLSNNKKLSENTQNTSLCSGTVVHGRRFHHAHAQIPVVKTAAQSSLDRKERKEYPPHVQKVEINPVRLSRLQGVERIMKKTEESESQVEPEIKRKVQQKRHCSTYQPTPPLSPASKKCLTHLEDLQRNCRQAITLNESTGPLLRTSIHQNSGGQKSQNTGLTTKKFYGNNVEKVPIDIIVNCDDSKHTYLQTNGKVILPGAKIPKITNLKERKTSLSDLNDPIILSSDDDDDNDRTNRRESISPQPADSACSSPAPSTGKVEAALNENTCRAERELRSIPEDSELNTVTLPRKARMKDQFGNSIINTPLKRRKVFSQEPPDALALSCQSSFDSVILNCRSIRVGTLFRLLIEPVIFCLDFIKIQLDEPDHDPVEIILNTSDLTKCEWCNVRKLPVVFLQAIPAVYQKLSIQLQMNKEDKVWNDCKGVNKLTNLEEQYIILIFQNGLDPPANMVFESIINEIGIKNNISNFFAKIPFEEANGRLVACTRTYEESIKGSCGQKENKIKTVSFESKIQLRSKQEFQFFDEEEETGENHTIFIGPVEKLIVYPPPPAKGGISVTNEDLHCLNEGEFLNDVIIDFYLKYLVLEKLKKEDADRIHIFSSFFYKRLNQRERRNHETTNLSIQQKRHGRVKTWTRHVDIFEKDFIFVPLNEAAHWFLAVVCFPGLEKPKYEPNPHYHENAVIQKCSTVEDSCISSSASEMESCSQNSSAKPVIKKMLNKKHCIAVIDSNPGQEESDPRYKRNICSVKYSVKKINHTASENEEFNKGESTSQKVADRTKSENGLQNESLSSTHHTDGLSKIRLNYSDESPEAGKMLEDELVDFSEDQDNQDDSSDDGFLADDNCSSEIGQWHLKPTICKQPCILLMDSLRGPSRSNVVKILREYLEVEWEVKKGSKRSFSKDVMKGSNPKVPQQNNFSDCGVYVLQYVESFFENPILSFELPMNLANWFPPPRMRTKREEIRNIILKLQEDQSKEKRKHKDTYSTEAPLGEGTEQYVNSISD

[10] = molecular target: T6, Sentrin-specific protease 7 (Homo sapiens, UniProt Q9BQF6); assay type: functional;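 note: Luminescence-based dose-response confirmation of ultra-high-throughput screening hits, measuring inhibition of SENP7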
T6 sequence (Q9BQF6 whole entry): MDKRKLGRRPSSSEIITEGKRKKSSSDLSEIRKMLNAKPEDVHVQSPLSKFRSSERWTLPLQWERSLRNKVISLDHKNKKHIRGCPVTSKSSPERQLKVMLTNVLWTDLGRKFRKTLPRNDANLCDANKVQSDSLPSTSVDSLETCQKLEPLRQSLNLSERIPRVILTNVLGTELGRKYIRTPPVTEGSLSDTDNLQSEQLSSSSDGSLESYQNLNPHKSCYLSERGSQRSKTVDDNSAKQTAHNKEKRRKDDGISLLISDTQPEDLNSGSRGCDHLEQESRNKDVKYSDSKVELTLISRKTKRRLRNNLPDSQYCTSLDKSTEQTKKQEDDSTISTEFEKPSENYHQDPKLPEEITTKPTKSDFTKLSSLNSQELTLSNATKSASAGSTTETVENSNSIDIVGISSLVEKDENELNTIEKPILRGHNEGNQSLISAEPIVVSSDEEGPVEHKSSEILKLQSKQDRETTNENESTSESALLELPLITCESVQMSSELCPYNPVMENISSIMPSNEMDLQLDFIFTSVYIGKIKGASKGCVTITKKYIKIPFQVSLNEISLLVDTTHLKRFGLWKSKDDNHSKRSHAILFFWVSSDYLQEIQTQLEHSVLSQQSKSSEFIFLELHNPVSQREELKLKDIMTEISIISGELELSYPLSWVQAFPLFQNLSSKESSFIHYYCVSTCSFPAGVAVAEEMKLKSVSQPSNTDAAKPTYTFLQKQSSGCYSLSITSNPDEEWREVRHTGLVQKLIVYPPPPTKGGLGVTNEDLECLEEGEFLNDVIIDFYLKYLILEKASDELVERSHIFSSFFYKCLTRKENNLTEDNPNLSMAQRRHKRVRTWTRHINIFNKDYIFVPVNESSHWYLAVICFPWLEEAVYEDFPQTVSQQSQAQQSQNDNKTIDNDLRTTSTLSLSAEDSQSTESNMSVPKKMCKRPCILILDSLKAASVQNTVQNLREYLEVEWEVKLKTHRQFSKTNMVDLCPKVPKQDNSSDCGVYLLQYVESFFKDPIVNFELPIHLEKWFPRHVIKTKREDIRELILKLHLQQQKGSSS

[11] = molecular target: T7, Low molecular weight phosphotyrosine protein phosphatase (Homo sapiens, UniProt P24666); assay type: functional; settings: read-out: IC50_Mean;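 note: Dose-response confirmation assay measuring inhibition of LMPTP enzyme activity by fluorescence intensity read-out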
T7 sequence (P24666 whole entry): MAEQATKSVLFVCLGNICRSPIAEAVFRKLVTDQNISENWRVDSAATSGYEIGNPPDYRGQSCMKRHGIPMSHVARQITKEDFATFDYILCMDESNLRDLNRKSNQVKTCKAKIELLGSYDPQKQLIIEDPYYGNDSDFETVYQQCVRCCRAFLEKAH

O=C(CCCC(=O)N(c1ccc2c(c1)OCCO2)C(C(=O)NC1CCCCC1)c1ccc(F)cc1)Nc1ccccn1 (configuration not stated)
AC50 [1]: 42.5 µM (active)
AC50 [2]: 4.52 µM (active)
AC50 [3]: 31.9 µM (active)
AC50 [4]: 6.87 µM (active)

Cn1c(C(=O)NCC2CCCO2)cc2c(=O)n(C)c3ccccc3c21 (configuration not stated)
AC50 [5]: 13.4 µM (active)

COc1ccc(F)cc1C(=O)C1CCCN(C(=O)c2ccc(C(C)=O)s2)C1 (configuration not stated)
AC50 [6]: 1.06 µM (active)

CCOc1cc(-c2nc3ccccc3s2)ccc1O
IC50 [7]: 33.4 µM (active)
AC50 [5]: 5.92 µM (active)

COc1ccc(C(=O)Nc2cccc(C(=O)N/N=C/c3ccc(OC)cc3OC)c2)cc1
AC50 (HEK293): 1.79 µM (active)

CN(C)C(=O)C[C@@H]1C[C@H]2c3cc(NS(=O)(=O)c4ccc(F)cc4)ccc3O[C@H]2[C@H](CO)O1
AC50 [3]: 3.41 µM (active)

C[C@@H]1CN([C@H](C)CO)C(=O)c2cc(C#Cc3cccnc3)cnc2O[C@H]1CN(C)S(C)(=O)=O
AC50 [6]: 3.35 µM (active)

Cc1ccc(O)c(C2=Nc3ccccc3C2(C)C)c1
AC50 (HeLa): 31.6 µM (active)
IC50 [8]: 26.9 µM (active)
IC50 (Caspase-3): 22.5 µM (active)
IC50 [9]: 18.2 µM (active)
IC50 [10]: 4.9 µM (active)

CC(=O)c1c(C)[nH]c(C(=O)Nc2cccnc2)c1C
AC50 [6]: 3 µM (active)

O=C(CSc1nnc(NC(=O)c2ccc3c(c2)OCO3)s1)NCc1ccco1
AC50 (HEK293): 2.65 µM (active)

C[C@@]12C(=O)N(Cc3ccco3)CC(=O)N1[C@H]1c3ccccc3OC[C@@H]1[C@@H]2c1ccccc1
AC50 [1]: 12.4 µM (active)
AC50 [2]: 3.09 µM (active)
AC50 [4]: 3.14 µM (active)

Cc1nc2ccccc2nc(C)c1=NOCc1cccc(Cl)c1
AC50 [1]: 11.6 µM (active)
AC50 [2]: 13 µM (active)
AC50 [3]: 0.421 µM (active)
AC50 [4]: 10.3 µM (active)

CN(C)c1ccc(/C=N/NC(=O)c2nnn(-c3nonc3N)c2COc2ccc(F)cc2)cc1
IC50 [11]: 12 µM (active)

Fc1ccc(NC(S)=Nc2cccc3cnccc23)cc1
AC50 [5]: 9.44 µM (active)
